Literature values, collected in US9512402B2, “Compositions for the preparation of mature dendritic cells” (Helmholtz Zentrum Munchen Deutsches Forschungszentrum fur …, priority 2006, dated 2016).

System: mature DCs
Settings: DCs matured only with IFNα; Frankenberger 2005

Substance: IFNα
- EGFP protein expression following RNA transfer: failed to express EGFP protein
